Calls of active or inactive are those of the source.
Assays:
Rattus norvegicus [1] = experiment: Immunomodulatory activity in Freund's complete adjuvant induced Lewis rat model of arthritis assessed as increase in CD4positive CD25positive Treg cells in peripheral blood at 20 mg/kg, po administered every 24 hrs for 28 days post immunization starting from day 8 post immunization by flow cytometry analysis; format: functional, organism-based; details: time 21.0 day
Rattus norvegicus [2] = experiment: Antiarthritic activity in Freund's complete adjuvant induced Lewis rat model of arthritis assessed as inhibition of left hind paw edema at 20 mg/kg, po administered every 24 to 48 hrs for 28 days post immunization starting from day 8 post immunization; format: functional, organism-based; details: time 21.0 day
RAW264.7 [3] = experiment: Antiinflammatory activity in LPS-induced mouse RAW264.7 cells assessed as inhibition of NO production pretreated for 1 hr followed by LPS stimulation and measured after 24 hrs by griess reagent based assay; format: functional, cell-based
RAW264.7 [4] = experiment: Antiinflammatory activity against LPS-induced mouse RAW264.7 cells assessed as inhibition of COX-2 protein expression pretreated for 1 hr followed by LPS stimulation and measured after 24 hrs by Western blot analysis; format: functional, cell-based; details: dose 2.5-10 µM, time 25.0 hrs
[5] = Toxicity in male Wistar rat assessed as gastrointestinal damage by measuring number of ulcers at 50 mg/kg administered by gavage and measured after 6 hrs (reference value: 0); format: organism-based; details: in vivo, po
[6] = Toxicity in male Wistar rat assessed as gastrointestinal damage by measuring level-1 ulcers with <1 mm area at 50 mg/kg administered by gavage and measured after 6 hrs; format: organism-based; details: in vivo, po
Rattus norvegicus [7] = experiment: (§1) Antiarthritic activity in Freund's complete adjuvant induced Lewis rat model of arthritis assessed as reduction in joint tissue damage by measuring reduction in cartilage degeneration at 20 mg/kg, po administered every 24 hrs for 28 days post immunization starting from day 8 post immunization by H and E staining based analysis; format: functional, organism-based; details: time 21.0 day
Rattus norvegicus [8] = experiment: Antiarthritic activity in Freund's complete adjuvant induced Lewis rat model of arthritis assessed as reduction in PGE2 level in serum at 20 mg/kg, po administered every 24 to 48 hrs for 28 days post immunization starting from day 8 post immunization by ELISA; format: functional, organism-based; details: time 21.0 day
[9] = molecular target: T1, Prostaglandin G/H synthase 2 (Mus musculus) (UniProt Q05769); experiment: Binding affinity to COX-2 in LPS-induced mouse RAW264.7 cells assessed as thermal stability at 30 uM pretreated with LPS for 24 hrs followed by compound addition and measured after 2 hrs by CETSA; format: cell-based
T1 sequence (whole entry): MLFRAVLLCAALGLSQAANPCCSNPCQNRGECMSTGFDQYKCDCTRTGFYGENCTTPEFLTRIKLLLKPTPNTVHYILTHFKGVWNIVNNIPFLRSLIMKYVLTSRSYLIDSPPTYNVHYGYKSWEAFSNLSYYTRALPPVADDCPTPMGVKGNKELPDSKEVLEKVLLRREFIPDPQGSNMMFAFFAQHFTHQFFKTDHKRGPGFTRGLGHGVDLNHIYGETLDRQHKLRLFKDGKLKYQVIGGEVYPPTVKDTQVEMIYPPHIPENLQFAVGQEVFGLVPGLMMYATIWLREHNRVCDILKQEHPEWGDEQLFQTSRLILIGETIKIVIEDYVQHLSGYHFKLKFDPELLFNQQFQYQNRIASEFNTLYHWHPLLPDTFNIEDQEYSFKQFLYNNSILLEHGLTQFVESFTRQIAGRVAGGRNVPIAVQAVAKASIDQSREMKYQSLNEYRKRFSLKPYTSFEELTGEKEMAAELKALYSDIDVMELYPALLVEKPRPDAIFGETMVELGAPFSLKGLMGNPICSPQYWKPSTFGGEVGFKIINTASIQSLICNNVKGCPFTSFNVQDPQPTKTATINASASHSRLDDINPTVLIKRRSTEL

[10] = Nephrotoxicity in male Wistar rat assessed as effect on blood urea nitrogen level at 20 mg/kg, po administered for 3 days; format: toxicity, organism-based; details: in vivo, 72 h, time 3 day
Rattus norvegicus [11] = experiment: Antiarthritic activity in Freund's complete adjuvant induced Lewis rat model of arthritis assessed as modulation of immune system responses by measuring reduction in spleen weight at 20 mg/kg, po administered every 24 to 48 hrs for 28 days post immunization starting from day 8 post immunization; format: functional, organism-based; details: time 21.0 day
RAW264.7 [12] = experiment: Antiinflammatory activity against LPS-induced mouse RAW264.7 cells assessed as inhibition of cPLA2 protein expression pretreated for 1 hr followed by LPS stimulation and measured after 24 hrs by Western blot analysis; format: functional, cell-based; details: dose 2.5-10 µM, time 25.0 hrs
Rattus norvegicus [13] = experiment: Immunomodulatory activity in Freund's complete adjuvant induced Lewis rat model of arthritis assessed as increase in CD4positive CD25positive Treg cells in spleen at 20 mg/kg, po administered every 24 hrs for 28 days post immunization starting from day 8 post immunization by flow cytometry analysis; format: functional, organism-based; details: time 21.0 day
RAW264.7 [14] = experiment: Antiinflammatory activity in LPS-induced mouse RAW264.7 cells assessed as inhibition of NO production at 10 uM pretreated for 1 hr followed by LPS stimulation and measured over 48 hrs by griess reagent based assay; format: functional, cell-based; details: time > 49.0 hrs
RAW264.7 [15] = experiment: Cytotoxicity against LPS-induced mouse RAW264.7 cells assessed as reduction in cell viability at 30 uM pretreated for 1 hr followed by LPS addition and measured after 24 hrs by MTT assay; format: toxicity, cell-based; details: raw264.7, 25 h
Rattus norvegicus [16] = experiment: as §1, with “synovial hyperplasia” for “cartilage degeneration”; format: functional, organism-based; details: time 21.0 day
Rattus norvegicus [17] = experiment: Immunomodulatory activity in Freund's complete adjuvant induced Lewis rat model of arthritis assessed as increase in IL-10 level in serum at 20 mg/kg, po administered every 24 to 48 hrs for 28 days post immunization starting from day 8 post immunization by ELISA; format: functional, organism-based; details: time 21.0 day
Rattus norvegicus [18] = experiment: Antiarthritic activity in Freund's complete adjuvant induced Lewis rat model of arthritis assessed as reduction in joint deformities induced walking and polyarthritis symptoms at 20 mg/kg, po administered every 24 to 48 hrs for 28 days post immunization starting from day 8 post immunization; format: functional, organism-based; details: time 21.0 day
[19] = Toxicity in male Wistar rat assessed as gastrointestinal damage by measuring ulcer index at 50 mg/kg administered by gavage and measured after 6 hrs; format: organism-based; details: in vivo, po
[20] = Toxicity in male Wistar rat assessed as gastrointestinal damage by measuring ulcer index at 100 mg/kg administered by gavage and measured after 6 hrs; format: organism-based; details: in vivo, po
RAW264.7 [21] = experiment: Antiinflammatory activity against LPS-induced mouse RAW264.7 cells assessed as inhibition of iNOS protein expression pretreated for 1 hr followed by LPS stimulation and measured after 24 hrs by Western blot analysis; format: functional, cell-based; details: dose 2.5-10 µM, time 25.0 hrs
Rattus norvegicus [22] = experiment: Analgesic activity in Freund's complete adjuvant induced Lewis rat model of arthritis assessed as increase in mechanical paw withdrawal threshold at 20 mg/kg, po administered every 24 to 48 hrs for 28 days post immunization starting from day 8 post immunization; format: functional, organism-based; details: time 21.0 day
Mus musculus = organism: Mus musculus; experiment: Analgesic activity in mouse model assessed as reduction in acetic acid induced inflammatory pain; format: functional, organism-based

IC50 (RAW264.7 [3]): 3.85 µM
Activity [9]: Active
SMILES: CCCCC/C=C\C/C=C\C/C=C\C/C=C\CC/C=C(/OC(=O)C(C)c1ccc(C(=O)c2ccccc2)cc1)C(F)(F)F (stereo not drawn)
Activity (Rattus norvegicus [1]): Active
Activity (Rattus norvegicus [2]): Active
Activity (RAW264.7 [4]): Dose-Dependent Effect
Activity [5]: 0
Activity [6]: 0%
Activity (Rattus norvegicus [7]): Active
Activity (Rattus norvegicus [8]): Active
Activity [10]: Non-Toxic
Activity (Rattus norvegicus [11]): Active
Activity (RAW264.7 [12]): Dose-Dependent Effect
Activity (Rattus norvegicus [13]): Active
Activity (RAW264.7 [14]): Active
Activity (RAW264.7 [15]): Non-Toxic
Activity (Rattus norvegicus [16]): Active
Activity (Rattus norvegicus [17]): Active
Activity (Rattus norvegicus [18]): Active
UI [19]: 0
UI [20]: 8
Activity (RAW264.7 [21]): Dose-Dependent Effect
Activity (Rattus norvegicus [22]): Active
Activity (Mus musculus): Active
